Patent US10815247B2, “Functionalized NANOLUC inhibitors” (PROMEGA CORPORATION, priority 2016, dated 2020)
“Also recorded” adds a separate entry of the source. Read-outs that look alike come from different tables or passages of the source.

Key:
Nluc-HT fusion protein = test: Inhibition of Nluc luciferase by JRW-0308 (FIG. 1); type: biochemical; conditions: 0.05 nM protein in PBS/0.05% BSA, 2 hours at room temperature, furimazine 10 μM
NanoLuc [1] = biological target: T1, NanoLuc (Oplophorus gracilirostris, UniProt Q9GV45, A31E/A60N/A81I/F95D/I117V/K70R/L54V/L99Q/M102K/N193R/P142E/Q151K/Q38R/Q45L/V71I/Y165I); test: Inhibitor IC50 determination; type: biochemical
Description: The following example provides the IC50 values for the compounds disclosed herein. NANOLUC® enzyme was diluted to 0.4 ng/ml in CO2 independent media+10% FBS to make the detection reagent. A 3× dilution series of each inhibitor was then made in the detection reagent. A “no inhibitor” control was also made for each sample. 50 ul of each inhibitor dilution was mixed with 50 ul of NanoGlo® buffer containing 20 μM furimazine (final furimazine concentration is 10 μM, which is at Km.), and luminescence was measured. Each sample was normalized to the “no inhibitor” control. The IC50 values were then determined using GraphPad Prism (log[inhibitor] vs. normalized response).

Nluc = Nluc (Oplophorus gracilirostris, UniProt Q9GV45, A31E/A60N/A81I/F95D/I117V/K70R/L54V/L99Q/M102K/N193R/P142E/Q151K/Q38R/Q45L/V71I/Y165I); test: Inhibition of Nluc luciferase by JRW-0308 (FIG. 1); conditions: 0.05 nM protein in PBS/0.05% BSA, 2 hours at room temperature, furimazine 10 μM
Description: (§1) Samples were analyzed after addition of furimazine (10 μM final concentration) using a BMG Clariostar plate reader.

[2] = biological target: Nluc-HT-618 in HeLa cells (Oplophorus gracilirostris, UniProt Q9GV45, A31E/A60N/A81I/F95D/I117V/K70R/L54V/L99Q/M102K/N193R/P142E/Q151K/Q38R/Q45L/V71I/Y165I); test: Inhibition of Nluc luciferase in cells (FIG. 2B); conditions: HeLa cells pre-labelled with 500 nM NanoBRET 618 ligand, 2 hours at 37° C., furimazine 190 μM
Description: (§2) HeLa cells were reverse transfected with expression constructs for Nluc or Nluc-HT, plated (20,000 cells/100 μL growth medium) and incubated for 24 hours. […] HeLa cells were reverse transfected with expression constructs for Nluc or Nluc-HT, plated (20,000 cells/100 μL growth medium), and incubated for 24 hours.

Nluc in HeLa cells = Nluc in HeLa cells (Oplophorus gracilirostris, UniProt Q9GV45, A31E/A60N/A81I/F95D/I117V/K70R/L54V/L99Q/M102K/N193R/P142E/Q151K/Q38R/Q45L/V71I/Y165I); test: Inhibition of Nluc luciferase in cells (FIG. 2A); conditions: 2 hours at 37° C., furimazine 190 μM
Description: as §2

[3] = biological target: Nluc-HT-TMR (Nluc-HT conjugated to TMR chloroalkane) (Oplophorus gracilirostris, UniProt Q9GV45, A31E/A60N/A81I/F95D/I117V/K70R/L54V/L99Q/M102K/N193R/P142E/Q151K/Q38R/Q45L/V71I/Y165I); test: Inhibition of Nluc luciferase by JRW-0308 (FIG. 1); conditions: 0.05 nM protein in PBS/0.05% BSA, 2 hours at room temperature, furimazine 10 μM
Description: as §1

[4] = system: Nluc-HT fusion protein in HeLa cells; test: Inhibition of Nluc luciferase in cells (FIG. 2A, 2B); type: cell-based; conditions: 2 hours at 37° C., furimazine 190 μM
NanoLuc [5] = biological target: T1, NanoLuc; conditions: inhibitor diluted to 3 uM, NanoLuc 0.4 ng/ml, 100 uM furimazine, read at two minute intervals
Description: Inhibitors were diluted to 3 uM into OptiMEM+0.1% FBS. NanoLuc was diluted to 0.4 ng/ml into NanoGlo® buffer+100 uM furimazine. 50 ul of each inhibitor was added to 50 ul of the NanoLuc/furimazine/NanoGlo® solution. Samples were immediately placed in a GloMax Multi+ set to read in kinetic mode at two minute intervals.
Inhibitors were diluted to 3 uM into OptiMEM+0.1% FBS. NanoLuc was diluted to 0.4 ng/ml into NanoGlo® buffer+100 uM furimazine. 50 ul of each inhibitor was added to 50 ul of the NanoLuc/furimazine/NanoGlo® solution. Samples were immediately placed in a GloMax® Multi+ set to read in kinetic mode at two minute intervals.

NanoLuc [6] = biological target: T1, NanoLuc; test: Suicide inhibition: displacement of inhibitor by furimazine upon dilution (FIG. 7); conditions: 10 μM Nluc + 10 μM inhibitor 30 minutes at RT, diluted to 10 pM, furimazine 10 uM
Description: Following dilution, 50 ul of the dilution was combined with 50 ul of NanoGlo® assay buffer.
Following dilution, 50 ul of the dilution was combined with 50 ul of NanoGlo® assay buffer. Final furimazine concentration was 10 uM.

[7] = 0.4 ng/ml NANOLUC in CO2 independent media+10% FBS, final furimazine 10 μM, no pre-incubation noted, read-out: IC50

T1 sequence (Q9GV45 28-196 with tags or gaps with the stated changes limits assumed): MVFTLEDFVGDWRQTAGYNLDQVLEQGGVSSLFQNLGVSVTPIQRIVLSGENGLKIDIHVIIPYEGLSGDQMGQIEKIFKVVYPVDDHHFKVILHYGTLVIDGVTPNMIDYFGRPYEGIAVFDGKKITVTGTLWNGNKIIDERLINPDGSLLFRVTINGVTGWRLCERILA
Chain of Nluc-HT-618 in HeLa cells (Q9GV45 28-196 with tags or gaps with the stated changes limits assumed): as above
Chain of Nluc (Q9GV45 28-196 with tags or gaps with the stated changes limits assumed): as above
Chain of Nluc in HeLa cells (Q9GV45 28-196 with tags or gaps with the stated changes limits assumed): as above
Chain of Nluc-HT-TMR (Nluc-HT conjugated to TMR chloroalkane) (Q9GV45 28-196 with tags or gaps with the stated changes limits assumed): as above

| Compound | IC50 (NanoLuc [1]) | displacement of inhibitor by furimazine upon dilution (NanoLuc [6]) | IC50 (NanoLuc [1]; [7]) | further results |
| --- | --- | --- | --- | --- |
| CCN(C(=O)Cn1c(C(=O)N[C@H]2CC[C@H](C(=O)NCCCCCCNC(=O)OCCOCCOCCOC(=O)NCCOCCOCCCCCCCl)CC2)cc2sccc21)c1cccc(C)c1 [JRW-0308] | 22 nM | – | – | inhibition of Nluc-HT fusion protein (Nluc-HT fusion protein): potently inhibits; inhibition of Nluc alone (Nluc): higher concentrations are required; inhibition of Nluc-HT-618 in cells [2]: higher concentrations of JRW-0308 are necessary; inhibition of Nluc in cells (Nluc in HeLa cells): higher concentrations are required; inhibition of Nluc-HT-TMR [3]: higher concentrations are required; inhibition of Nluc-HT fusion protein in cells [4]: potently inhibits |
| CCN(C(=O)Cn1c(C(=O)N[C@H]2CC[C@H](C(=O)NCCCCCCCC(=O)NCCOCCOCCC(=O)ON3C(=O)CCC3=O)CC2)cc2sccc21)c1cccc(C)c1 [JRW-0544, 2,5-dioxopyrrolidin-1-yl 1-(trans-4-(4-(2-(ethyl(m-tolyl)amino)-2-oxoethyl)-4H-thieno[3,2-b]pyrrole-5-carboxamido)cyclohexyl)-1,10-dioxo-14,17-dioxa-2,11-diazaicosan-20-oate] | 13 nM | – | – | Nluc inhibition over time (kinetic light output) (NanoLuc [5]): steady state binding |
| CCN(C(=O)Cn1c(C(=O)N[C@H]2CC[C@H](C(=O)OC)CC2)cc2sccc21)c1cccc(CCCBr)c1 [JRW-0548, methyl trans-4-(4-(2-((3-(3-bromopropyl)phenyl)(ethyl)amino)-2-oxoethyl)-4H-thieno[3,2-b]pyrrole-5-carboxamido)cyclohexane-1-carboxylate] | 99 nM | – | – | Nluc inhibition over time (kinetic light output) (NanoLuc [5]): steady state inhibition |
| CCc1cccc(N(CC)C(=O)Cn2c(C(=O)N[C@H]3CC[C@H](C(=O)NCCCCCC(=O)OC)CC3)cc3ccccc32)c1 [JRW-0598, methyl 6-(trans-4-(1-(2-(ethyl(3-ethylphenyl)amino)-2-oxoethyl)-1H-indole-2-carboxamido)cyclohexane-1-carboxamido)hexanoate] | 0.4 nM | slower | – | – |
| CCc1cccc(N(CC)C(=O)Cn2c(C(=O)N[C@H]3CC[C@H](C(=O)NCCCCCCCC(=O)ON4C(=O)CCC4=O)CC3)cc3ccccc32)c1 [JRW-0600, 2,5-dioxopyrrolidin-1-yl 8-(trans-4-(1-(2-(ethyl(3-ethylphenyl)amino)-2-oxoethyl)-1H-indole-2-carboxamido)cyclohexane-1-carboxamido)octanoate] | – | not displaced | – | reversibility of Nluc inhibition (NanoLuc [6]): irreversible inhibition; also recorded: irreversibly inhibit |
| CCc1cccc(N(CC)C(=O)Cn2c(C(=O)N[C@H]3CC[C@H](C(=O)NCCCCCC(=O)ON4C(=O)CCC4=O)CC3)cc3ccccc32)c1 [JRW-0604, 2,5-dioxopyrrolidin-1-yl 6-(trans-4-(1-(2-(ethyl(3-ethylphenyl)amino)-2-oxoethyl)-1H-indole-2-carboxamido)cyclohexane-1-carboxamido)hexanoate] | 2.7 nM | slower | – | reversibility of Nluc inhibition (NanoLuc [6]): did not show irreversible inhibition |
| CCc1cccc(N(CC)C(=O)Cn2c(C(=O)N[C@H]3CC[C@H](C(=O)NCCCCCC(=O)Oc4ccccc4)CC3)cc3ccccc32)c1 [JRW-0606, phenyl 6-(trans-4-(1-(2-(ethyl(3-ethylphenyl)amino)-2-oxoethyl)-1H-indole-2-carboxamido)cyclohexane-1-carboxamido)hexanoate] | 4.1 nM | slower | – | – |
| CCc1cccc(N(CC)C(=O)Cn2c(C(=O)N[C@H]3CC[C@H](C(=O)NCCCCCCNC(=O)c4ccc5c(c4)C(=O)OC54c5ccc(OC(C)=O)cc5Oc5cc(OC(C)=O)ccc54)CC3)cc3ccccc32)c1 [JRW-0650, 5-((6-(trans-4-(1-(2-(ethyl(3-ethylphenyl)amino)-2-oxoethyl)-1H-indole-2-carboxamido)cyclohexane-1-carboxamido)hexyl)carbamoyl)-3-oxo-3H-spiro[isobenzofuran-1,9′-xanthene]-3′,6′-diyl diacetate] | – | slower | – | – |
| N-(trans-4-((1-(3′,6′-dihydroxy-3-oxo-3H-spiro[isobenzofuran-1,9′-xanthen]-5,6-yl)-1,11-dioxo-5,8-dioxa-2,12-diazaicosan-20-yl)carbamoyl)cyclohexyl)-1-(2-(ethyl(3-ethylphenyl)amino)-2-oxoethyl)-1H-indole-2-carboxamide [JRW-0921] | – | – | 1.1 nM | – |
| N-(trans-4-((6-(3′,6′-diamino-3-oxo-3H-spiro[isobenzofuran-1,9′-xanthene]-5,6-carboxamido)hexyl)carbamoyl)cyclohexyl)-1-(2-(ethyl(3-ethylphenyl)amino)-2-oxoethyl)-1H-indole-2-carboxamide [JRW-0859] | – | – | 2 nM | – |
| N-(trans-4-((8-(3′,6′-diamino-3-oxo-3H-spiro[isobenzofuran-1,9′-xanthene]-5,6-carboxamido)octyl)carbamoyl)cyclohexyl)-1-(2-(ethyl(3-ethylphenyl)amino)-2-oxoethyl)-1H-indole-2-carboxamide [JRW-0886] | – | – | 3.7 nM | – |
| N-(trans-4-((8-(4′,5′-dichloro-3′,6′-dihydroxy-2′,7′-dimethoxy-3-oxo-3H-spiro[isobenzofuran-1,9′-xanthene]-5,6-carboxamido)octyl)carbamoyl)cyclohexyl)-1-(2-(ethyl(3-ethylphenyl)amino)-2-oxoethyl)-1H-indole-2-carboxamide [JRW-0964] | – | – | 12 nM | – |
| N-(trans-4-((8-(6-((Z)-2-((E)-3-(1,1-dimethyl-1,4,5,6-tetrahydro-3λ4-pyrrolo[3,2,1-ij]quinolin-2-yl)allylidene)-1-methyl-1,2,5,6-tetrahydro-4H-pyrrolo[3,2,1-ij]quinolin-1-yl)hexanamido)octyl)carbamoyl)cyclohexyl)-1-(2-(ethyl(3-ethylphenyl)amino)-2-oxoethyl)-1H-indole-2-carboxamide [JRW-0958] | – | – | 16 nM | – |
